{
  "source": "PubChem BioAssay (NCI)",
  "experiment_in_all_cases": "inhibition of tumour cell growth, NCI panel, 48 h",
  "key": {"ACHN renal": {"system": "ACHN renal"}, "HCT-15 colon": {"system": "HCT-15 colon"}, "NCI-H226 lung": {"system": "NCI-H226 lung"}, "OVCAR-8 ovarian": {"system": "OVCAR-8 ovarian"}, "SK-MEL-2 melanoma": {"system": "SK-MEL-2 melanoma"}, "SK-OV-3 ovarian": {"system": "SK-OV-3 ovarian"}, "T-47D breast": {"system": "T-47D breast"}, "TK-10 renal": {"system": "TK-10 renal"}, "U251 CNS": {"system": "U251 CNS"}, "UACC-257 melanoma": {"system": "UACC-257 melanoma"}},
  "note": "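Cultured in 96-well plates, cells were exposed to test compound for 48 hours across five concentrations. At the GI50, growth is halved. Definition used: TGI = concentration required for complete inhibition of growth.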",
  "data": [
    {"smiles": "O=C(O)c1ccc(-c2ccc(C(=O)O)cc2I)c(I)c1", "values": [
      {"measurement": "GI50", "setting": "ACHN renal", "result": "> 100", "unit": "µM"},
      {"measurement": "TGI", "setting": "ACHN renal", "result": "> 100", "unit": "µM"},
      {"measurement": "GI50", "setting": "HCT-15 colon", "result": "> 100", "unit": "µM"},
      {"measurement": "TGI", "setting": "HCT-15 colon", "result": "> 100", "unit": "µM"},
      {"measurement": "GI50", "setting": "NCI-H226 lung", "result": "> 100", "unit": "µM"},
      {"measurement": "TGI", "setting": "NCI-H226 lung", "result": "> 100", "unit": "µM"},
      {"measurement": "GI50", "setting": "OVCAR-8 ovarian", "result": "> 100", "unit": "µM"},
      {"measurement": "TGI", "setting": "OVCAR-8 ovarian", "result": "> 100", "unit": "µM"},
      {"measurement": "GI50", "setting": "SK-MEL-2 melanoma", "result": "> 100", "unit": "µM"},
      {"measurement": "TGI", "setting": "SK-MEL-2 melanoma", "result": "> 100", "unit": "µM"},
      {"measurement": "GI50", "setting": "SK-OV-3 ovarian", "result": "> 100", "unit": "µM"},
      {"measurement": "TGI", "setting": "SK-OV-3 ovarian", "result": "> 100", "unit": "µM"},
      {"measurement": "GI50", "setting": "T-47D breast", "result": "> 100", "unit": "µM"},
      {"measurement": "TGI", "setting": "T-47D breast", "result": "> 100", "unit": "µM"},
      {"measurement": "GI50", "setting": "TK-10 renal", "result": "> 100", "unit": "µM"},
      {"measurement": "TGI", "setting": "TK-10 renal", "result": "> 100", "unit": "µM"},
      {"measurement": "GI50", "setting": "U251 CNS", "result": "> 100", "unit": "µM"},
      {"measurement": "TGI", "setting": "U251 CNS", "result": "> 100", "unit": "µM"},
      {"measurement": "GI50", "setting": "UACC-257 melanoma", "result": "> 100", "unit": "µM"},
      {"measurement": "TGI", "setting": "UACC-257 melanoma", "result": "> 100", "unit": "µM"}
    ]},
    {"smiles": "CCCCCC(=O)OCC(=O)O[C@@H]1C[C@]2(C(C)C)O[C@@]1(C)[C@@H]1CC[C@@H](C)[C@H]1[C@@H]2OC(=O)/C=C/c1ccccc1", "values": [
      {"measurement": "GI50", "setting": "ACHN renal", "result": 0.0387, "unit": "µM"},
      {"measurement": "TGI", "setting": "ACHN renal", "result": 10.1, "unit": "µM"},
      {"measurement": "GI50", "setting": "HCT-15 colon", "result": "> 34.3", "unit": "µM"},
      {"measurement": "TGI", "setting": "HCT-15 colon", "result": "> 70", "unit": "µM"},
      {"measurement": "GI50", "setting": "NCI-H226 lung", "result": 50.6, "unit": "µM"},
      {"measurement": "TGI", "setting": "NCI-H226 lung", "result": "> 100", "unit": "µM"},
      {"measurement": "GI50", "setting": "OVCAR-8 ovarian", "result": 0.0907, "unit": "µM"},
      {"measurement": "TGI", "setting": "OVCAR-8 ovarian", "result": "> 79.2", "unit": "µM"},
      {"measurement": "GI50", "setting": "SK-MEL-2 melanoma", "result": "> 58.2", "unit": "µM"},
      {"measurement": "TGI", "setting": "SK-MEL-2 melanoma", "result": "> 81", "unit": "µM"},
      {"measurement": "GI50", "setting": "SK-OV-3 ovarian", "result": "> 85.2", "unit": "µM"},
      {"measurement": "TGI", "setting": "SK-OV-3 ovarian", "result": "> 100", "unit": "µM"},
      {"measurement": "GI50", "setting": "T-47D breast", "result": 10, "unit": "µM"},
      {"measurement": "TGI", "setting": "T-47D breast", "result": "> 92.7", "unit": "µM"},
      {"measurement": "GI50", "setting": "TK-10 renal", "result": "> 51.1", "unit": "µM"},
      {"measurement": "TGI", "setting": "TK-10 renal", "result": "> 93.5", "unit": "µM"},
      {"measurement": "GI50", "setting": "U251 CNS", "result": "> 53.1", "unit": "µM"},
      {"measurement": "TGI", "setting": "U251 CNS", "result": "> 100", "unit": "µM"},
      {"measurement": "GI50", "setting": "UACC-257 melanoma", "result": "> 55.7", "unit": "µM"},
      {"measurement": "TGI", "setting": "UACC-257 melanoma", "result": "> 89.2", "unit": "µM"}
    ]}
  ]
}
